Experimental data published in PubChem BioAssay (NCI).
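Dose response: 5 concentrations. Exposure: 48 h. Format: 96-well plates. Endpoint: linear interpolation; highest concentration if not reached. TGI: concentration producing complete growth inhibition.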

Tests used:
Assay in all cases: inhibition of tumour cell growth, NCI panel, 48 h
[1] = test system: HOP-92 NSCLC
[2] = test system: MDA-MB-435
[3] = test system: OVCAR-4 ovarian
[4] = test system: HCT-116 colon
[5] = test system: SNB-75 CNS
[6] = test system: HS 578T breast
[7] = test system: CCRF-CEM leukemia
[8] = test system: SNB-19 CNS
[9] = test system: K-562 leukemia
[10] = test system: A498 renal
[11] = test system: UACC-257 melanoma
[12] = test system: RXF 393 renal
[13] = test system: HCC-2998 colon
[14] = test system: HL-60(TB) leukemia
[15] = test system: MDA-MB-231 breast
[16] = test system: OVCAR-8 ovarian
[17] = test system: IGROV1 ovarian
[18] = test system: SK-MEL-2 melanoma
[19] = test system: OVCAR-3 ovarian
[20] = test system: NCI-H522 lung
[21] = test system: MALME-3M melanoma
[22] = test system: LOX IMVI melanoma
[23] = test system: SK-MEL-28 melanoma
[24] = test system: NCI-H460 lung
[25] = test system: NCI/ADR-RES ovarian
[26] = test system: NCI-H23 lung
[27] = test system: KM12 colon
[28] = test system: UO-31 renal
[29] = test system: COLO 205 colon
[30] = test system: OVCAR-5 ovarian
[31] = test system: CAKI-1 renal
[32] = test system: MOLT-4 leukemia
[33] = test system: NCI-H226 lung
[34] = test system: BT-549 breast
[35] = test system: A549 NSCLC
[36] = test system: SR leukemia
[37] = test system: SF-295 CNS
[38] = test system: DU-145 prostate
[39] = test system: MDA-N
[40] = test system: M14 melanoma
[41] = test system: TK-10 renal
[42] = test system: MCF7 breast
[43] = test system: SF-539 CNS
[44] = test system: T-47D breast
[45] = test system: HCT-15 colon
[46] = test system: SK-MEL-5 melanoma
[47] = test system: ACHN renal
[48] = test system: PC-3 prostate
[49] = test system: U251 CNS
[50] = test system: HT29 colon
[51] = test system: SW-620 colon
[52] = test system: UACC-62 melanoma
[53] = test system: RPMI-8226 leukemia
[54] = test system: 786-0 renal
[55] = test system: SK-OV-3 ovarian
[56] = test system: SN12C renal
[57] = test system: SF-268 CNS
[58] = test system: HOP-62 NSCLC
[59] = test system: EKVX NSCLC

CC1CCC2(CC1)N=C1CCC(C)CC1C1(CCC(C)CC1)N2 (stereo not given)
TGI [1]: > 100 µM | TGI [2]: > 100 µM | TGI [3]: > 100 µM | TGI [4]: > 100 µM | TGI [5]: > 100 µM | TGI [6]: > 100 µM | TGI [7]: > 100 µM | TGI [8]: > 100 µM | TGI [9]: > 100 µM | TGI [10]: > 100 µM | TGI [11]: > 100 µM | TGI [12]: > 100 µM | TGI [13]: > 100 µM | TGI [14]: > 100 µM | TGI [15]: > 100 µM | TGI [16]: > 100 µM | TGI [17]: > 100 µM | TGI [18]: > 100 µM | TGI [19]: > 100 µM | TGI [20]: > 100 µM | TGI [21]: > 100 µM | TGI [22]: > 100 µM | TGI [23]: > 100 µM | TGI [24]: > 100 µM | TGI [25]: > 100 µM | TGI [26]: > 100 µM | TGI [27]: > 100 µM | TGI [28]: > 100 µM | TGI [29]: > 100 µM | TGI [30]: > 100 µM | TGI [31]: > 100 µM | TGI [32]: 95.3 µM | TGI [33]: > 100 µM | TGI [34]: > 100 µM | TGI [35]: > 100 µM | TGI [36]: > 100 µM | TGI [37]: > 100 µM | TGI [38]: > 100 µM | TGI [39]: > 100 µM | TGI [40]: > 100 µM | TGI [41]: > 100 µM | TGI [42]: > 100 µM | TGI [43]: > 100 µM | TGI [44]: > 100 µM | TGI [45]: > 100 µM | TGI [46]: > 100 µM | TGI [47]: > 100 µM | TGI [48]: > 100 µM | TGI [49]: > 100 µM | TGI [50]: > 100 µM | TGI [51]: > 100 µM | TGI [52]: > 100 µM | TGI [53]: > 100 µM | TGI [54]: > 100 µM | TGI [55]: > 100 µM

O=C(CCCn1ccnc1[N+](=O)[O-])NCCn1ccnc1[N+](=O)[O-]
TGI [2]: > 100 µM | TGI [3]: > 100 µM | TGI [4]: > 100 µM | TGI [5]: > 100 µM | TGI [6]: > 100 µM | TGI [7]: > 100 µM | TGI [8]: > 100 µM | TGI [9]: > 100 µM | TGI [11]: > 100 µM | TGI [56]: > 100 µM | TGI [13]: > 100 µM | TGI [14]: > 100 µM | TGI [16]: > 100 µM | TGI [17]: > 100 µM | TGI [18]: > 100 µM | TGI [19]: > 100 µM | TGI [20]: > 100 µM | TGI [21]: > 100 µM | TGI [22]: > 100 µM | TGI [23]: > 100 µM | TGI [24]: > 100 µM | TGI [25]: > 100 µM | TGI [26]: > 100 µM | TGI [27]: > 100 µM | TGI [28]: > 100 µM | TGI [57]: > 100 µM | TGI [29]: > 100 µM | TGI [30]: > 100 µM | TGI [31]: > 100 µM | TGI [32]: > 100 µM | TGI [33]: > 100 µM | TGI [34]: > 100 µM | TGI [35]: > 100 µM | TGI [36]: > 100 µM | TGI [37]: > 100 µM | TGI [38]: > 100 µM | TGI [58]: > 100 µM | TGI [39]: > 100 µM | TGI [40]: > 100 µM | TGI [41]: > 100 µM | TGI [42]: > 100 µM | TGI [43]: > 100 µM | TGI [44]: > 100 µM | TGI [45]: > 100 µM | TGI [46]: > 100 µM | TGI [47]: > 100 µM | TGI [48]: > 100 µM | TGI [49]: > 100 µM | TGI [50]: > 100 µM | TGI [51]: > 100 µM | TGI [52]: > 100 µM | TGI [53]: > 100 µM | TGI [54]: > 100 µM | TGI [59]: > 100 µM | TGI [55]: > 100 µM
